Residue numbers refer to the chain shown, from its start. Where two headings read alike, the source gives them in different places.
Columns and labels:
[1] = target: T1, human androgen receptor W741L mutant (Homo sapiens, UniProt P10275, W742L); experiment: Cell-based transactivation assay for human androgen receptor mutant W741L
T1 construct: expressed in transfected cells; host or cells: PC-3 cells, transient transfection with a pSG5-derived plasmid
T1 sequence (P10275 1-920 W742L): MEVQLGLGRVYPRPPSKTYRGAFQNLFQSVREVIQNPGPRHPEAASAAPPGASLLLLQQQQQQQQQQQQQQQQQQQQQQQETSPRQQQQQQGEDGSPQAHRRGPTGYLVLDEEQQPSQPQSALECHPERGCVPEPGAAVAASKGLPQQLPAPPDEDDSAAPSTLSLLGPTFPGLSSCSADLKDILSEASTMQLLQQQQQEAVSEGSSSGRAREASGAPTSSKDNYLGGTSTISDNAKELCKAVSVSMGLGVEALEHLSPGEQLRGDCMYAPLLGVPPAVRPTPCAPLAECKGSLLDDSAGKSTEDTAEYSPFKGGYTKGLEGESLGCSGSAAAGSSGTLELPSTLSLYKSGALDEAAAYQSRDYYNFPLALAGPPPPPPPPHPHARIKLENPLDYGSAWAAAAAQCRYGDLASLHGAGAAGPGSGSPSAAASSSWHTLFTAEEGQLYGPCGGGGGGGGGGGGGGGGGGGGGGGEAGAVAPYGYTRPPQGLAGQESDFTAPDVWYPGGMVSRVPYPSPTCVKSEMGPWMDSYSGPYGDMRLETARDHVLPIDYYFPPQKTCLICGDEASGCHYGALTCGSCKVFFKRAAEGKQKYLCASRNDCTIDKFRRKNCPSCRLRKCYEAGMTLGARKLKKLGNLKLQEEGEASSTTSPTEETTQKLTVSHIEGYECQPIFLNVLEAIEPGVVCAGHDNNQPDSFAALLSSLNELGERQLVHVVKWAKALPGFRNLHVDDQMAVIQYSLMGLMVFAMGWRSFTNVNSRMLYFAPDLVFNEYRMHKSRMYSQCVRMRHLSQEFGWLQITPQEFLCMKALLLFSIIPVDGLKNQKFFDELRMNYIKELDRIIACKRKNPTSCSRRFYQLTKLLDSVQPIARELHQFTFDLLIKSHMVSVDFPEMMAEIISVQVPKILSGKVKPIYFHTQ
Description: Cell-Based Transactivation Assay for Human Androgen Receptor Mutant W741L or W741C
PC-3 cells (Kaighn et al., Invest. Urol. 17:16-23, 1979) were grown in 5% charcoal-stripped medium and seeded at a concentration of 10000 cells per well in a 96-well plate. They were transiently transfected with a pSG5-derived plasmid (#216201 from Stratagene, La Jolla, Calif., USA) coding for the human androgen receptor W741L or W741C mutant Mara et al., Cancer Research, 63: 149-153, 2003) and an MMTV-Luciferase reporter plasmid based on pGL4.14 14 (#E6691, Promega Corporation, Madison, Wis., USA). The compound to be tested was added at a concentration range varying from 1×10^−9 to 1×10 M together with 1×10^−10 R1881. After 24 h incubation at 37° C. in a 5% CO2 atmosphere, 100 μl of Steady Glo Lysis and Detection reagent (Steady Glo Luciferase assay system E2550 from Promega Corporation. Madison, Wis., USA) were added. Antagonistic activity was determined by measuring Luciferase activity in a Victor 3 Luminometer (PerkinElmer, Waltham, Mass., USA) using the Steady Glo Luciferase Assay (E2550, Promega). IC50 values were calculated for anti-androgenic activity.

[2] = target: T2, wild-type human androgen receptor (Homo sapiens, UniProt P10275); experiment: Cell-based transactivation assay for wild-type human androgen receptor (PC-3 cells, MMTV-luciferase reporter)
T2 construct: expressed in transfected cells
T2 sequence (P10275 1-920): T1 sequence (P10275 1-920 W742L) with L742W
Description: Cell-Based Transactivation Assay for Wild-Type Human Androgen Receptor
PC-3 cells (Kaighn et al., Invest. Urol. 17:16-23, 1979) stably transfected with the human androgen receptor (Swiss-Prot Acc. No. P10275, Entry Version 159, Sequence Version 2) and a reporter plasmid based on pGL4.14 (#E6691, Promega Corporation, Madison, Wis., USA) containing the MMTV promoter (Cato et al., EMBO J. 6:363-8, 1987) were used. They were grown in 5% charcoal-stripped medium and seeded at a concentration of 1000 cells per well in a 384-well plate. For determination of antagonistic activity, the plate additionally contained the compound to be tested at a concentration range varying from 5.12×10^−12 to 1×10^−5 M. The assay was performed in presence of 1×10^−10 R1881 (also known as methyltrienolone). After overnight incubation at 37° C. in a 5% CO2 atmosphere, 15 μl of Steady Glo Lysis and Detection reagent (Steady Glo Luciferase assay system E2550 from Promega Corporation. Madison, Wis., USA) were added. IC50 was calculated for anti-androgenic activity as well as percentage inhibition in presence of 2 μM compound in comparison to non-stimulated luciferase signal. Agonistic activity was determined using the same concentration range of compound in the absence of R1881 by measuring Luciferase activity as above. EC50 was calculated for androgenic activity. Assay/read plates were used (Polystyrol; 384, NV-white cell culture plates; Perkin Elmer).

VCaP cells = experiment: Proliferation assay with VCaP cells; type: cell-based; settings: Homo sapiens, 168 h, R1881 (1×10^−10) stimulated growth
Description: Proliferation Assay with VCaP Cells
VCaP cells ((Korenchuk et al., In Vivo 15: 163-168, 2001)) were seeded at 16 000 cells/well in 96-well plates in DMEM (F0445, Biochrom AG, Berlin, Germany) with phenol red supplemented with 10% charcoal-stripped serum. After 1 day, the cells were treated with R1881 (1×10^−10) and compound (day 0). Cell number was determined by Alamar Blue (DAL1100, Invitrogen, Life Technologies, Lohne, Germany) staining (2.5 h) at day 0 and day 7. Fluorescence was determined in Victor3 (Excitation 530 nm; emission 590 nm). Stimulated growth was defined as the signal measured at day 7 for cells treated only with R1881. Basal level was defined as the signal measured at day 7 for cells grown without R1881.

[3] = target: T3, human androgen receptor E709Y mutant (Homo sapiens, UniProt P10275, E710Y); experiment: Cell-based transactivation assay for human androgen receptor mutant E709Y
T3 construct: expressed in transfected cells; host or cells: PC-3 cells, transient transfection with a pSG5-derived plasmid
T3 sequence (P10275 1-920 E710Y): T1 sequence (P10275 1-920 W742L) with E710Y, L742W
Description: Cell-Based Transactivation Assay for Human Androgen Receptor Mutant E709Y
PC-3 cells (Kaighn et al., Invest. Urol. 17:16-23, 1979) were grown in 5% charcoal-stripped medium and seeded at a concentration of 10000 cells per well in a 96-well plate. They were transiently transfected with a pSG5-derived plasmid (#216201 from Stratagene, La Jolla, Calif., USA) coding for the human androgen receptor E709Y mutant (Georget et al., Molecular Endocrinology, 20(4): 724-734, 2006) and an MMTV-Luciferase reporter plasmid based on pGL4.14 14 (#E6691, Promega Corporation, Madison, Wis., USA). The compound to be tested was added at a concentration range varying from 1×10^−9 to 1×10^−6 M together with 1×10^−10 R1881. After 24 h incubation at 37° C. in a 5% CO2 atmosphere, 100 μl of Steady Glo Lysis and Detection reagent (Steady Glo Luciferase assay system E2550 from Promega Corporation. Madison, Wis., USA) were added. Antagonistic activity was determined by measuring Luciferase activity in a Victor 3 Luminometer (PerkinElmer, Waltham, Mass., USA) using the Steady Glo Luciferase Assay (E2550, Promega). IC50 values were calculated for anti-androgenic activity.

LNCaP cells = experiment: Proliferation assay with LNCaP cells; type: cell-based; settings: Homo sapiens, 168 h, R1881 (1×10^−10) stimulated growth, day 7, read-out: inhibition IC50 (LNCaP)
Description: Proliferation Assay with LNCaP Cells
LNCaP cells (Horoszewicz et al., in “Models for Prostate Cancer” (ed. G. P. Murphy), Alan R. Liss, New York 1981, p. 115-132; Horoszewicz et al., Cancer Res. 43:1809-1818, 1983) were seeded at 2000 cells/well in 96-well plates in RPMI (F1235, Biochrom AG, Berlin, Germany) without phenol red supplemented with 5% charcoal-stripped serum. After 3 days, the cells were treated with R1881) (1×10^−10) and compound (day 0). Cell number was determined by Alamar Blue (DAL1100, Invitrogen, Life Technologies, Lohne, Germany) staining (2.5 h) at day 0 and day 7. Fluorescence was determined in Victor3 (Excitation 530 nm; emission 590 nm). Stimulated growth was defined as the signal measured at day 7 for cells treated only with R1881. Basal level was defined as the signal measured at day 7 for cells grown without R1881.

[4] = day 7, read-out: Antiproliferative activity VCaP IC50
[5] = day 7, read-out: inhibition IC50 (VCaP)

## COc1ccc(CN2C(=S)N(c3ccc(C#N)c(C(F)(F)F)c3)C(=O)C2(C)C)cc1 [Comparative data^4]
[1]
  IC50: 379 nM
[2]
  EC50: 6810 nM
VCaP cells; [4]
  IC50: 860 nM
[3]
  IC50: 80.2 nM

## CC1(C)C(=O)N(c2ccc(C#N)c(C(F)(F)F)c2)C(=S)N1Cc1ccc(OCCN2CCOCC2)nc1 [Example 3, 4-[4,4-Dimethyl-3-({6-[2-(morpholin-4-yl)ethoxy]pyridin-3-yl}methyl)-5-oxo-2-thioxoimidazolidin-1-yl]-2-(trifluoromethyl)benzonitrile]
[1]
  IC50: 118 nM
LNCaP cells
  IC50: 127 nM
[2]
  EC50: > 10000 nM
VCaP cells; [4]
  IC50: 176 nM
[3]
  IC50: 79.5 nM

## CC1(C)C(=O)N(c2ccc(C#N)c(C(F)(F)F)c2)C(=S)N1Cc1ccc(OC2CCOCC2)nc1 [Example 5, 4-(4,4-Dimethyl-5-oxo-3-{[6-(tetrahydro-2H-pyran-4-yloxy)pyridin-3-yl]methyl}-2-thioxoimidazolidin-1-yl)-2-(trifluoromethyl)benzonitrile]
[1]
  IC50: 49.7 nM
LNCaP cells
  IC50: 200 nM
[2]
  EC50: > 10000 nM
[3]
  IC50: 44.8 nM

## CC1(C)C(=O)N(c2ccc(C#N)c(C(F)(F)F)c2)C(=S)N1Cc1cnc(N2CCOCC2)nc1N [Example 6, 4-(3-{[4-Amino-2-(morpholin-4-yl)pyrimidin-5-yl]methyl}-4,4-dimethyl-5-oxo-2-thioxoimidazolidin-1-yl)-2-(trifluoromethyl)benzonitrile]
[1]
  IC50: 92.8 nM
[2]
  EC50: 5000 nM
[3]
  IC50: 19.3 nM

## CC1CN(c2ccc(CN3C(=S)N(c4ccc(C#N)c(C(F)(F)F)c4)C(=O)C3(C)C)cn2)CCO1 (stereo not shown) [Example 7, 4-(4,4-Dimethyl-3-{[6-(2-methylmorpholin-4-yl)pyridin-3-yl]methyl}-5-oxo-2-thioxoimidazolidin-1-yl)-2-(trifluoromethyl)benzonitrile]
[1]
  IC50: 49.1 nM
LNCaP cells
  IC50: 118 nM
[2]
  EC50: > 10000 nM
VCaP cells; [4]
  IC50: 106 nM
VCaP cells; [5]
  IC50: 106 nM
[3]
  IC50: 22.6 nM

## COc1ccc(CN2C(=S)N(c3ccc(C#N)c(C(F)(F)F)c3)C(=O)C2(C)C)cn1 [Example 8, 4-{3-[(6-Methoxypyridin-3-yl)methyl]-4,4-dimethyl-5-oxo-2-thioxoimidazolidin-1-yl}-2-(trifluoromethyl)benzonitrile]
[1]
  IC50: 49.2 nM
LNCaP cells
  IC50: 120 nM
[2]
  EC50: 8860 nM
VCaP cells; [4]
  IC50: 92.5 nM
VCaP cells; [5]
  IC50: 92 nM
[3]
  IC50: 9.18 nM

## Cc1nccn1-c1ccc(CN2C(=S)N(c3ccc(C#N)c(C(F)(F)F)c3)C(=O)C2(C)C)cn1 [Example 15, 4-(4,4-Dimethyl-3-{[6-(2-methyl-1H-imidazol-1-yl)pyridin-3-yl]methyl}-5-oxo-2-thioxoimidazolidin-1-yl)-2-(trifluoromethyl)benzonitrile]
[1]
  IC50: 13.2 nM
LNCaP cells
  IC50: 116 nM
[2]
  EC50: > 10000 nM
VCaP cells; [4]
  IC50: 253 nM
[3]
  IC50: 29.9 nM

## CC1(C)CC(=O)N(c2ccc(CN3C(=S)N(c4ccc(C#N)c(C(F)(F)F)c4)C(=O)C3(C)C)cn2)C1 [Example 16, 4-(3-{[6-(4,4-Dimethyl-2-oxopyrrolidin-1-yl)pyridin-3-yl]methyl}-4,4-dimethyl-5-oxo-2-thioxoimidazolidin-1-yl)-2-(trifluoromethyl)benzonitrile]
[1]
  IC50: 78.5 nM
LNCaP cells
  IC50: 121 nM
[2]
  EC50: > 10000 nM
[3]
  IC50: 143 nM

## CN=S1(=O)CCN(c2ccc(CN3C(=S)N(c4ccc(C#N)c(C(F)(F)F)c4)C(=O)C3(C)C)cn2)CC1 [Example 22, 4-[4,4-Dimethyl-3-({6-[1-(methylimino)-1-oxido-1λ^6-thiomorpholin-4-yl]pyridin-3-yl}methyl)-5-oxo-2-thioxoimidazolidin-1-yl]-2-(trifluoromethyl)benzonitrile]
[1]
  IC50: 57.4 nM
LNCaP cells
  IC50: 135 nM
[2]
  EC50: > 10000 nM

Reference: patent US20120251551A1, “Substituted (Heteroarylmethyl)thiohydantoins” (BAYER PHARMA AKTIENGESELLSCHAFT, priority 2009, published 2012)
